The numbers were not newly measured in patent publication US8623415B2, “Method for producing biologically ingestible microparticles, biologically ingestible microparticles, and dispersion and pharmaceutical composition containing the same” (M. Technique Co., Ltd., priority 2007, dated 2014), which cites them from elsewhere.

SMILES strings stand for the structures. Read-outs that look alike come from different tables or passages of the source.

The conditions of data set [1]: dissolved in an aqueous solution of pH 6 or higher.

Consider `C#C[C@]1(O)CC[C@H]2[C@@H]3CCC4=Cc5oncc5C[C@]4(C)[C@H]3CC[C@@]21C` [danazol, 17-α-pregno-2,4-diene-20-ino-[2,3-d]-isoxazol-17-ol (danazol)], for which the “biological availability (BA)” value was 5.1% (commercial product (average particle diameter 10 μm) administered to a dog as a suspension) and 82.3% (nano-suspension, average particle diameter 169 nm, dog).

For `O=C(O)c1cc(O)c2c3nc4ccccc4oc-3cc(=O)c2n1` [pirenoxine], the “stability in aqueous solution” value in data set [1] is recorded as “hydrolyzed”.
